Source: US20200316091A1, “METHOD FOR PROVIDING CONTRACEPTION” (LABORATOIRE HRA-PHARMA, priority 2019, published 2020)

Legend:
ovulation in women = conditions: COC started two days after ulipristal acetate intake; cited from earlier work
[1] = test system: ovarian activity and ovulation in women; experiment: Prospective, randomized, parallel-group clinical study of ovarian activity after ellaOne taken after three missed COC pills; format: in vivo; conditions: for ovulation with risk of pregnancy: Arm 1, COC resumed same day as UPA 30 mg, any time of experimental cycle, N=26
Description: To determine the effect on ovarian activity and ovulation, of waiting five days before re-starting combined oral contraception (COC), or restarting immediately, having taken ulipristal acetate (UPA) for emergency contraception (EC) after missing three COC pills.
Women were enrolled for three cycles of COC use in a 21/7 regimen. In cycle 3 all women omitted COC pills for three consecutive days (days 5, 6, 7) and on day 8 took UPA-EC (30 mg). Half the women restarted their COC pills that same day while the remainder waiting for five days before restarting. Transvaginal ultrasound (TVUS) and blood sampling for estrogen and progesterone (E and P) was undertaken in all women on days 4, 8, 11, 13, 15, 18, 22 and 26. If a follicle of >13 mm diameter was seen, TVUS and blood sampling were performed daily until a post-ovulatory follicle was seen.
Women aged 18-30, weighing ≤30 kg/m^2 participated in the study during use of three consecutive packets of COCP. Women with contraindications to the COC or with conditions associated with anovulation (e.g. polycystic ovarian syndrome), and women who were breastfeeding or using any other hormonal contraception or an intrauterine device (IUD) were excluded. Screening was undertaken during cycle 1. Throughout the study women kept a daily diary of pill intake and vaginal bleeding. All women were instructed to take their pills at the same time every evening and to follow standard rules during the first two cycles of pill use for missed pills or for vomiting after taking a pill. The duration of COC intake in cycle 1 was adjusted (to no less than 14 and no more than 21 pills) to allow the first day of cycle 2 (baseline cycle—BSL) to fall on a weekday. After a seven-day hormone free interval (HFI) all women switched to the study COC containing 30 μg ethinyl estradiol/150 μg levonorgestrel with seven placebo tablets. Cycle three (Experimental cycle—EXP), started after a seven-day HFI at the end of BSL. After transvaginal ultrasound (TVUS) on day 1 of pill intake women were randomized so that an equal number of women with ovarian follicles of diameter ≤10 mm, or >10 mm and ≤13 mm or >13 mm were allocated to one of two study arms. After 4 days of COC, all women deliberately missed their COC pill on three consecutive days (5, 6, 7) and on the morning of day 8 all took a single 30 mg tablet of ellaOne® (ulipristal acetate 30 mg). Women in arm 1 of the study (immediate re-start) resumed daily COC intake that evening (D8) while those in arm 2 waited 5 days, re-starting their OC pill on the evening of D13 (delayed re-start). Once restarted, the COCP was continued until the packet was finished. A high sensitivity urinary pregnancy test was undertaken on day 1 of BSL and EXP and at the final study visit one or two days after the HFI following the end of the pill pack. Adverse event information was collected at every visit and blood sampling for haemoglobin and liver function was performed four times during the study.
An ovarian activity score developed from the Hoogland score (Hoogland and Skouby 1993, Contraception, 1993. 47(6): p. 583-90). The ovary was considered quiescent (OSq) if estradiol concentration was ≤0.1 nmol/L and progesterone ≤5 nmol/L even if a follicle of >13 mm was present. […] Ovulation was considered at risk of pregnancy (OSp) if there was a postovulatory image on TVUS and progesterone concentrations were >30 nmol/L on one occasion or between 10-30 nmol/L on two consecutive occasions.
The proportion of women who were at risk of pregnancy (OSp) at any time during the experimental cycle, including those who ovulated within the five days following ellaOne® intake, was estimated and the exact (Clopper-Pearson) two-sided 95% confidence interval was provided for each arm. The difference between the two arms was tested through an exact without stratum adjustment due to insufficient number of women in the self-weighted strata. […]

[2] = Arm 1 immediate COCP re-start (D8), experimental cycle D 1
[3] = Arm 1 immediate COCP re-start (D8), experimental cycle D 4
[4] = Arm 1 immediate COCP re-start (D8), experimental cycle D 8
[5] = Arm 1 immediate COCP re-start (D8), experimental cycle D 11
[6] = Arm 1 immediate COCP re-start (D8), experimental cycle D 13
[7] = Arm 1 immediate COCP re-start (D8), experimental cycle D 15
[8] = Arm 1 immediate COCP re-start (D8), experimental cycle D 18
[9] = Arm 1 immediate COCP re-start (D8), experimental cycle D 22
[10] = Arm 1 immediate COCP re-start (D8), experimental cycle D 26
[11] = Arm 2 delayed COCP re-start (D13), experimental cycle D 1
[12] = Arm 2 delayed COCP re-start (D13), experimental cycle D 4
[13] = Arm 2 delayed COCP re-start (D13), experimental cycle D 8
[14] = Arm 2 delayed COCP re-start (D13), experimental cycle D 11
[15] = Arm 2 delayed COCP re-start (D13), experimental cycle D 13
[16] = Arm 2 delayed COCP re-start (D13), experimental cycle D 15
[17] = Arm 2 delayed COCP re-start (D13), experimental cycle D 18
[18] = Arm 2 delayed COCP re-start (D13), experimental cycle D 22
[19] = Arm 2 delayed COCP re-start (D13), experimental cycle D 26

## CC(=O)O[C@]1(C(C)=O)CC[C@H]2[C@@H]3CCC4=CC(=O)CCC4=C3[C@@H](c3ccc(N(C)C)cc3)C[C@@]21C [ellaOne, 17α-acetoxy-11β-[4-N,N-dimethylamino-phenyl]-19-norpregna-4,9-diene-3,20-dione]
Ovulation in women
  effect of starting COC on efficacy of ulipristal acetate to inhibit or delay ovulation: significantly impairs efficacy
[1]; listed as Ella
  ovulation with risk of pregnancy: no ovulation at risk of pregnancy occurred
[1]; listed as Ellaone
  ovulation with risk of pregnancy: no woman
[1]; Arm 1, immediate COC re-start, experimental cycle
  number of women with ovarian activity without risk of pregnancy (OSa): one
[1]; [2]
  OSa (ovarian activity not at risk of pregnancy), women with status/women monitored: 0/26
  OSp (ovulation at risk of pregnancy), women with status/women monitored: 0/26
  OSq (ovary quiescent), women with status/women monitored: 26/26
[1]; [3]
  OSa (ovarian activity not at risk of pregnancy), women with status/women monitored: 1/26
  OSp (ovulation at risk of pregnancy), women with status/women monitored: 0/26
  OSq (ovary quiescent), women with status/women monitored: 25/26
[1]; [4]
  OSa (ovarian activity not at risk of pregnancy), women with status/women monitored: 2/26
  OSp (ovulation at risk of pregnancy), women with status/women monitored: 0/26
  OSq (ovary quiescent), women with status/women monitored: 24/26
[1]; [5]
  OSa (ovarian activity not at risk of pregnancy), women with status/women monitored: 1/26
  OSp (ovulation at risk of pregnancy), women with status/women monitored: 0/26
  OSq (ovary quiescent), women with status/women monitored: 25/26
[1]; [6]
  OSa (ovarian activity not at risk of pregnancy), women with status/women monitored: 1/26
  OSp (ovulation at risk of pregnancy), women with status/women monitored: 0/26
  OSq (ovary quiescent), women with status/women monitored: 25/26
[1]; [7]
  OSa (ovarian activity not at risk of pregnancy), women with status/women monitored: 1/26
  OSp (ovulation at risk of pregnancy), women with status/women monitored: 0/26
  OSq (ovary quiescent), women with status/women monitored: 25/26
[1]; [8]
  OSa (ovarian activity not at risk of pregnancy), women with status/women monitored: 1/26
  OSp (ovulation at risk of pregnancy), women with status/women monitored: 0/26
  OSq (ovary quiescent), women with status/women monitored: 25/26
[1]; [9]
  OSa (ovarian activity not at risk of pregnancy), women with status/women monitored: 1/26
  OSp (ovulation at risk of pregnancy), women with status/women monitored: 0/26
  OSq (ovary quiescent), women with status/women monitored: 25/26
[1]; [10]
  OSa (ovarian activity not at risk of pregnancy), women with status/women monitored: 1/26
  OSp (ovulation at risk of pregnancy), women with status/women monitored: 0/26
  OSq (ovary quiescent), women with status/women monitored: 24/25
[1]; Arm 2, COC re-start delayed five days after UPA 30 mg, experimental cycle, CI 5.0-38.8, p=0.042 vs Arm 1
  proportion of women who ovulated with risk of pregnancy: 17.4%
[1]; Arm 2, COC re-start delayed five days, more than 5 days after UPA-EC, before end of experimental cycle, N=23
  number of women who ovulated with risk of pregnancy: Four
[1]; Arm 2, delayed COC re-start, remainder of experimental cycle
  number of women with resumption of follicle growth: Eight
[1]; [11]
  OSa (ovarian activity not at risk of pregnancy), women with status/women monitored: 1/23
  OSp (ovulation at risk of pregnancy), women with status/women monitored: 0/23
  OSq (ovary quiescent), women with status/women monitored: 22/23
[1]; [12]
  OSa (ovarian activity not at risk of pregnancy), women with status/women monitored: 3/23
  OSp (ovulation at risk of pregnancy), women with status/women monitored: 0/23
  OSq (ovary quiescent), women with status/women monitored: 20/23
[1]; [13]
  OSa (ovarian activity not at risk of pregnancy), women with status/women monitored: 4/23
  OSp (ovulation at risk of pregnancy), women with status/women monitored: 0/23
  OSq (ovary quiescent), women with status/women monitored: 19/23
[1]; [14]
  OSa (ovarian activity not at risk of pregnancy), women with status/women monitored: 6/23
  OSp (ovulation at risk of pregnancy), women with status/women monitored: 0/23
  OSq (ovary quiescent), women with status/women monitored: 17/23
[1]; [15]
  OSa (ovarian activity not at risk of pregnancy), women with status/women monitored: 5/22
  OSp (ovulation at risk of pregnancy), women with status/women monitored: 0/22
  OSq (ovary quiescent), women with status/women monitored: 17/22
[1]; [16]
  OSa (ovarian activity not at risk of pregnancy), women with status/women monitored: 7/23
  OSp (ovulation at risk of pregnancy), women with status/women monitored: 0/23
  OSq (ovary quiescent), women with status/women monitored: 16/23
[1]; [17]
  OSa (ovarian activity not at risk of pregnancy), women with status/women monitored: 8/23
  OSp (ovulation at risk of pregnancy), women with status/women monitored: 1/23
  OSq (ovary quiescent), women with status/women monitored: 14/23
[1]; [18]
  OSa (ovarian activity not at risk of pregnancy), women with status/women monitored: 2/23
  OSp (ovulation at risk of pregnancy), women with status/women monitored: 4/23
  OSq (ovary quiescent), women with status/women monitored: 17/23
[1]; [19]
  OSa (ovarian activity not at risk of pregnancy), women with status/women monitored: 4/23
  OSp (ovulation at risk of pregnancy), women with status/women monitored: 4/23
  OSq (ovary quiescent), women with status/women monitored: 15/23
[1]; COC resumed the same day as EllaOne 30 mg
  interference between the COC and EllaOne: no interference
